According to patent publication US9695181B2, “Hydroximic acid derivatives and medical applications therof” (Double Rider Medicine Co., LTD., priority 2013, dated 2017):

Key:
Assay type in all cases: biochemical
[1] = target: Human HDAC1 (Homo sapiens (Human), UniProt Q13547); test: Inhibition of catalyzing activity of histone deacetylase 1 (HDAC1), fluorescence detection; conditions: for IC50: substrate Ac-Lys-Tyr-Lys(Ac)-AMC, * average of three experiments ± SD, ** one experiment
Protocol: Human HDAC1, obtained by utilizing baculovirus expression system;
Substrate, Ac-Lys-Tyr-Lys (Ac)-AMC;
Enzymatic activity was tested in 96-well or 384-well flat microwell plate by fluorescence detection and taking Ac-Lys-Tyr-Lys(Ac)-AMC as substrate. The tested samples was firstly formulated to be a 10^−2 M stock solution in DMSO, subpackaged and storaged at −20° C., and then diluted to required concentration with reaction buffer before use. […] The initial reaction speed was calculated by detecting the change of fluorescence signal with time.

[2] = target: KDR (VEGFR2) protein tyrosine kinase (Homo sapiens (Human), UniProt P35968); test: Inhibition of KDR (VEGFR2) protein tyrosine kinase substrate phosphorylation, ELISA; conditions: for IC50: ELISA, ATP 5 μM, * average of three experiments ± SD, ** one experiment
Protocol: Kinase reaction substrate Poly(Glu, Tyr)4:1 (SIGMA);
(§1) (1) Kinase reaction substrate Poly(Glu,Tyr)4:1 was diluted to 20 µg/ml with potassium ion-free PBS, and enzyme labeled plate was coated by the substrate, reacted at 37° C. for 12-16 h, and then the liquid in holes was removed.
(§2) (2) Enzyme labeled plate was washed with T-PBS for 10 min three times.
(§3) (3) Enzyme labeled plate was dried at 37° C. in a dryer.
(§4) (4) The tested samples were added into holes of the coated enzyme labeled plate:
(§5) The tested samples was firstly formulated to be a 10^−2 M stock solution in DMSO, subpackaged and storaged at −20° C., and then diluted to required concentration with reaction buffer before use, added into the experiment holes to reach corresponding final concentration in a 100 μL reaction system. Meanwhile, positive control holes were created, and added with positive control compound Su11248.
(§6) (5) Adding ATP and the tested tyrosine kinase:
(§7) ATP solution (final concentration 5 μM) diluted with reaction buffer was added, and then tested tyrosine kinase diluted with reaction buffer was added. Total volume of the reaction system was 100 μL. Meanwhile, negative control holes and enzyme-free control holes were created.
(6) The reaction systems were placed in a wet box, reacted at 37° C. on a shaking table for 1 hour under a condition that light was prohibited, and after the reaction, the plate was washed with T-PBS for three times.
(7) Antibody PY99 100 μL/hole was added, reacted at 37° C. on a shaking table for 30 minutes. The plate was washed for three times with T-PBS.
(§8) (8) Horseradish peroxidase labeled Sheep anti mouse IgG 100 μL/hole was added, and reacted at 37° C. on a shaking table for 30 minutes. The plate was washed for three times with T-PBS.
(§9) (9) OPD coloring solution 100 μL/hole was added, and reacted at room temperature for 1-10 minutes under a condition that light was prohibited.
(§10) (10) 2M H2SO4 50 μL was added to terminate the reaction, and value A490 was measured by tunable wavelength type micro plate (Molecular Devices SPECTRAMAX190).
(§11) (11) The inhibition rate of the sample was obtained by the following equation:
(§12) [formula] Experimental Result

[3] = target: PDGFR-β (Platelet-Derived Growth Factor Receptor β) protein tyrosine kinase (Homo sapiens (Human), UniProt P09619); test: Inhibition of PDGFR-β protein tyrosine kinase substrate phosphorylation, ELISA; conditions: for IC50: ELISA, ATP 5 μM, * average of three experiments ± SD, ** one experiment; for inhibition of the activity of PDGFR-β tyrosine kinase, conclusion in words: at the molecular level
Protocol: Embodiment 19: Inhibition of Compound IIa, IIb, IIc and IId on the Activity of Catalyzing Substrate Phosphorylation of PDGFR-β (Platelet-Derived Growth Factor Receptor β) Protein Tyrosine Kinase at the Molecular Level: Enzyme-Linked Immunosorbent Assay (ELISA)
Tyrosine kinase PDGFR-β (MILLIPORE);
Kinase reaction substrate Poly(Glu,Tyr)4:1 (SIGMA);
as §1, §2, §3, §4
as §5, with “were” for “was”, “and” for “and added with”, “Su11248 was added.” for “Su11248.”
as §6, §7
(6) The reaction system were placed in a wet box, reacted at 37° C. on a shaking table for 1 hour under a condition that light was prohibited, and after the reaction, the plate was with T-PBS washed for three times.
(7) Antibody PY99 100 μL/hole was added, and reacted at 37° C. on a shaking table for 30 minutes. The plate was washed for three times with T-PBS.
as §8, §9, §10, §11, §12

Sequence of PDGFR-β (Platelet-Derived Growth Factor Receptor β) protein tyrosine kinase (P09619 33-1106): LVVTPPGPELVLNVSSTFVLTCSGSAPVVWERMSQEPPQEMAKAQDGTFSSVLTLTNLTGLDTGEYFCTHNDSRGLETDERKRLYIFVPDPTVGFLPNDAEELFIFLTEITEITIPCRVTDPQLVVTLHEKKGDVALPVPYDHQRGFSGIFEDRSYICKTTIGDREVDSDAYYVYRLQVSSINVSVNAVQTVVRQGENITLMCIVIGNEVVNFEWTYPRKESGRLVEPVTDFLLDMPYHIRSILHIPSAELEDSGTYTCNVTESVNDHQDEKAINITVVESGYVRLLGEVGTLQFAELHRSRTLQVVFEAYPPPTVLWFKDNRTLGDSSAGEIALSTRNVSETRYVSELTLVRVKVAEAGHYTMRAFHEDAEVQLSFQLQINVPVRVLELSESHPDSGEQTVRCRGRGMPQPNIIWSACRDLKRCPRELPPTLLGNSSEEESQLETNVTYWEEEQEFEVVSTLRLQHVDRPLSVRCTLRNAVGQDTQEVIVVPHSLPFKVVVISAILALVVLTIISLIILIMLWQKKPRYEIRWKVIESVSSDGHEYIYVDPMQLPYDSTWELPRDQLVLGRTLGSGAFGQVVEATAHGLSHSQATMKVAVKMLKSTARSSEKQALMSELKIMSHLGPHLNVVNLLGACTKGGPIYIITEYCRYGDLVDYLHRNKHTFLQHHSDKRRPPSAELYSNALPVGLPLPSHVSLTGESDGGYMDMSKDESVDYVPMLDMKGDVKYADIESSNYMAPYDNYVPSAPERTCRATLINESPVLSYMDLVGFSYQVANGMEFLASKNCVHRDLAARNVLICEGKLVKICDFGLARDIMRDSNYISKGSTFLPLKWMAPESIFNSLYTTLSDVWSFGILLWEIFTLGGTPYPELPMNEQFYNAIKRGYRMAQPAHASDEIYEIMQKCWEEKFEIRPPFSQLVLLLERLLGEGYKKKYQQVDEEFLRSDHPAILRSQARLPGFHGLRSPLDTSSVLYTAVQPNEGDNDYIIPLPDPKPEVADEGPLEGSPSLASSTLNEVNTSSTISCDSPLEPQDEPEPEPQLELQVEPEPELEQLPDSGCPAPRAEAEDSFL
Sequence of Human HDAC1 (Q13547 whole entry): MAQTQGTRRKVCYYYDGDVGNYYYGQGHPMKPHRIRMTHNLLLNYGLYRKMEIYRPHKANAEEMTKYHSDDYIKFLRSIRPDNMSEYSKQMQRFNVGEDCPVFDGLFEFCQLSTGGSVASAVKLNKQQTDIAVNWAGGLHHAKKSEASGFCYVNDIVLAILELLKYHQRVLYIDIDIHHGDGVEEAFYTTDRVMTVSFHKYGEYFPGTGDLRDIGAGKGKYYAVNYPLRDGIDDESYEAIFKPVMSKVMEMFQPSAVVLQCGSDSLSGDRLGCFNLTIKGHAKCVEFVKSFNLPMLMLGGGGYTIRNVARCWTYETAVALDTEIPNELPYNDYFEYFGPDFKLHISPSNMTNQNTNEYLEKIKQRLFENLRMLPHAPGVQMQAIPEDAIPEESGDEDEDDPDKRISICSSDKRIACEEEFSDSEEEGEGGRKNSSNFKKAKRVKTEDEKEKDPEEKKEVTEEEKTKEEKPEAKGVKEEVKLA
Sequence of KDR (VEGFR2) protein tyrosine kinase (P35968 20-1356, species assumed): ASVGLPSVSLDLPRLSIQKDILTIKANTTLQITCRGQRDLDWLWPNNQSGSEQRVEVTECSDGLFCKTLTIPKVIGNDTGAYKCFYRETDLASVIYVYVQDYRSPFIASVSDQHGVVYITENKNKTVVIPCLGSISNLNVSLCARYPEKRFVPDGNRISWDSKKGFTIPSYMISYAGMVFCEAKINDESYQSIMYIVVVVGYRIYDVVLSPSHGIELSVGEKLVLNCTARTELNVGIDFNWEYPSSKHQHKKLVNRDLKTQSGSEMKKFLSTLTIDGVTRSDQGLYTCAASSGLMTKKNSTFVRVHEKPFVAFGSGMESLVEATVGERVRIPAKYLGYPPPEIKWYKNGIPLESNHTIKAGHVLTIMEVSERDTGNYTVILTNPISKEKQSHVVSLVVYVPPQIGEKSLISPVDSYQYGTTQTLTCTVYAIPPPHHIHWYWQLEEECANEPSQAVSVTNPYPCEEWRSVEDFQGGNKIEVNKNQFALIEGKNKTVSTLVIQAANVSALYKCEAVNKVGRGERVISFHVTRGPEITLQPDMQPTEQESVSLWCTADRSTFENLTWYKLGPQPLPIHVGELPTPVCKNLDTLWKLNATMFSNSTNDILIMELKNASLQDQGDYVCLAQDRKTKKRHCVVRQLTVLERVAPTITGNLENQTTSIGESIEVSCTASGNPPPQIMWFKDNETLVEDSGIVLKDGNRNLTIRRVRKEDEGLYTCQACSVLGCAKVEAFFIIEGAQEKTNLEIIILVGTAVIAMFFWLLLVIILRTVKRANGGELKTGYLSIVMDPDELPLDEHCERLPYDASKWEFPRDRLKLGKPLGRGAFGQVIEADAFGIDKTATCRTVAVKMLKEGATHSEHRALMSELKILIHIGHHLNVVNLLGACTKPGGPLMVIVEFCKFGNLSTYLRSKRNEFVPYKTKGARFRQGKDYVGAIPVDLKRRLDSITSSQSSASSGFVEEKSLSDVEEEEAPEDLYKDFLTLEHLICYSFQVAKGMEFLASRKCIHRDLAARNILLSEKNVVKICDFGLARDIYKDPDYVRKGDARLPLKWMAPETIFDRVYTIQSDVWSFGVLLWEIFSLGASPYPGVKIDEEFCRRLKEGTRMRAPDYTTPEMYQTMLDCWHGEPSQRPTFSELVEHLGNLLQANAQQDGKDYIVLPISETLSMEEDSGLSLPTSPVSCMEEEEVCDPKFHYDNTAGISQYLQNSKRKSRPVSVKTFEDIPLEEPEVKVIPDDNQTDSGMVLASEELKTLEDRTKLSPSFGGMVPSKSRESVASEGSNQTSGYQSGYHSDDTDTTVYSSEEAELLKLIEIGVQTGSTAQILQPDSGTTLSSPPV

Row | IC50 [1] | IC50 [2] | IC50 [3] | inhibition of the activity of HDAC1, conclusion in words ([1]; at the molecular level) | inhibition of the activity of VEGFR2 tyrosine kinase, conclusion in words ([2]; at the molecular level) | inhibition of the activity of PDGFR-β tyrosine kinase, conclusion in words [3] | SMILES
1 | 1090 ± 210 nM | 3 ± 1 nM | 2.9 ± 1.5 nM | – | – | – | Cc1cccc(NC(=O)Nc2ccc(-c3nn(CCCCCCCC(=O)NO)c4ncnc(N)c34)cc2)c1 [Compound IIa]
2 | 470 ± 70 nM | 2.2 ± 0.9 nM | 0.5 ± 0.1 nM | – | – | – | Cc1ccc(F)c(NC(=O)Nc2ccc(-c3nn(CCCCCCCC(=O)NO)c4ncnc(N)c34)cc2)c1 [Compound IIb]
3 | 8650 nM | 572 nM | 146 nM | well inhibit | well inhibit | well inhibit | Cc1cccc(NC(=O)Nc2ccc(-c3nn(CCCN(C)CCCC(=O)NO)c4ncnc(N)c34)cc2)c1 [Compound IIc]
4 | 13800 nM | 1190 nM | 99.9 nM | – | – | well inhibit | Cc1cccc(NC(=O)Nc2ccc(-c3nn(CCCN(C)CCCC(=O)NO)c4ncnc(N)c34)cc2)c1 [Compound IId]
